Laboratory results from ChEMBL document CHEMBL1201862, “PubChem BioAssay data set” (2004).
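48-hour exposure; five concentrations; linearly interpolated endpoints. At the GI50, growth is halved.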 Activity calls are given as the source filed them. Cut-off read from the data, not from the text of the source: active = GI50 up to about 1.1 µM and inactive = higher.

Columns and labels:
Experiment in all cases: NCI-60 cell line screen, 48 h
[1] = tested on: T47D
[2] = tested on: RPMI-8226
[3] = tested on: SNB-75
[4] = tested on: OVCAR-8
[5] = tested on: SN12C
[6] = tested on: MOLT-4
[7] = tested on: PC-3
[8] = tested on: UACC-257
[9] = tested on: MDA-N
[10] = tested on: HL-60
[11] = tested on: SK-MEL-5
[12] = tested on: LOX IMVI
[13] = tested on: IGROV-1
[14] = tested on: SK-OV-3
[15] = tested on: U-251
[16] = tested on: CCRF-CEM
[17] = tested on: NCI/ADR-RES
[18] = tested on: HCT-15
[19] = tested on: NCI-H23
[20] = tested on: ACHN

SMILES | GI50 [1] | GI50 [2] | GI50 [3] | GI50 [4] | GI50 [5] | GI50 [6] | GI50 [7] | GI50 [8] | GI50 [9] | GI50 [10] | GI50 [11] | GI50 [12] | GI50 [13] | GI50 [14] | GI50 [15] | GI50 [16] | GI50 [17] | GI50 [18] [µM] | GI50 [19] | GI50 [20]
Cc1c(/C=N/NC(=S)Nc2ccccc2Cl)c(=O)n(-c2ccccc2)n1C | 13 µM (inactive) | 48.9 µM (inactive) | 25.9 µM (inactive) | 27.7 µM (inactive) | 44.2 µM (inactive) | 20.5 µM (inactive) | 43 µM (inactive) | 34.2 µM (inactive) | 87.3 µM (inactive) | 22.4 µM (inactive) | 32.7 µM (inactive) | 55.3 µM (inactive) | 40.3 µM (inactive) | 31 µM (inactive) | 30.3 µM (inactive) | 11 µM (inactive) | 20.2 µM (inactive) | 8.53 |  | 
Oc1ccc(Cl)cc1CN1CCN(Cc2cc(Cl)ccc2O)C1 | 1.84 µM (inactive) | 2.27 µM (inactive) | 1.52 µM (inactive) | 0.525 µM (active) | 1.11 µM (active) | 0.174 µM (active) | 0.206 µM (active) | 1.86 µM (inactive) | 1.79 µM (inactive) | 2.02 µM (inactive) | 0.973 µM (active) | 0.489 µM (active) | 1.89 µM (inactive) | 2.3 µM (inactive) | 1.11 µM (active) | 0.0603 µM (active) | 0.152 µM (active) |  | 1.19 µM (inactive) | 0.465 µM (active)
Cc1c(C)c2c(c(N)c1C#N)C(=O)N(Nc1ccccc1)C2=O | 9.95 µM (inactive) | > 100 µM (inactive) | 30.6 µM (inactive) | 33 µM (inactive) | > 100 µM (inactive) | 92.7 µM (inactive) | 57.3 µM (inactive) | 81.8 µM (inactive) | > 100 µM (inactive) | 26.7 µM (inactive) | > 100 µM (inactive) | 3.51 µM (inactive) | 42.7 µM (inactive) |  | 43.5 µM (inactive) | 97.1 µM (inactive) | 52.4 µM (inactive) | > 100 |  | 60.1 µM (inactive)
CCC(NC1=NCCO1)c1cccs1 (stereo not drawn) | 16.4 µM (inactive) | 25.1 µM (inactive) | 3.24 µM (inactive) | 16.7 µM (inactive) |  | > 100 µM (inactive) | 13.4 µM (inactive) | 18 µM (inactive) | 14.6 µM (inactive) | 18.6 µM (inactive) | 16.8 µM (inactive) | 23.7 µM (inactive) | 20.8 µM (inactive) | 13.8 µM (inactive) | 13.5 µM (inactive) | 7.36 µM (inactive) | 43.1 µM (inactive) | 15.6 | 16.9 µM (inactive) | 15.9 µM (inactive)
C(=N\c1ccc(-c2nc3ccccc3[nH]2)cc1)/c1ccco1 | 38.5 µM (inactive) | 34.8 µM (inactive) | > 100 µM (inactive) | 34.4 µM (inactive) | > 100 µM (inactive) | 29.3 µM (inactive) | 33.6 µM (inactive) | > 100 µM (inactive) | 48.1 µM (inactive) | 24.3 µM (inactive) | 25.5 µM (inactive) | 67 µM (inactive) | > 100 µM (inactive) |  |  | 16.5 µM (inactive) | 84.9 µM (inactive) | 61 | 82.6 µM (inactive) | > 100 µM (inactive)
[N-]=[N+]=C1CNC(=O)NC1=O | > 100 µM (inactive) | 28.8 µM (inactive) | 13.5 µM (inactive) | > 100 µM (inactive) | > 100 µM (inactive) | 42.5 µM (inactive) | > 100 µM (inactive) | > 100 µM (inactive) | > 100 µM (inactive) | 34 µM (inactive) | > 100 µM (inactive) | 60.1 µM (inactive) | > 100 µM (inactive) | > 100 µM (inactive) | > 100 µM (inactive) | 24.3 µM (inactive) | > 100 µM (inactive) | > 100 | > 100 µM (inactive) | 69.3 µM (inactive)
CCCc1cc(=O)oc2c3c(c4c(c12)OC(C)(C)CC4)O[C@H](C)[C@@H](C)[C@H]3O | 12 µM (inactive) | 4.82 µM (inactive) | 16.4 µM (inactive) | 15.5 µM (inactive) | 16.4 µM (inactive) | 12.4 µM (inactive) | 10.1 µM (inactive) | 14.8 µM (inactive) | 5.56 µM (inactive) |  | 15.1 µM (inactive) | 14.8 µM (inactive) | 15.6 µM (inactive) | 17.5 µM (inactive) | 13.9 µM (inactive) | 14.1 µM (inactive) | 11.2 µM (inactive) | 13.4 | 16 µM (inactive) | 
OCC(O)C(O)C(O)C1SC(c2ccccc2)=NN1c1ccccc1 (stereo not drawn) | > 46.8 µM (inactive) | > 86.3 µM (inactive) | 16 µM (inactive) | 54 µM (inactive) | > 91.8 µM (inactive) | > 81.3 µM (inactive) | > 57.5 µM (inactive) | > 89.1 µM (inactive) | > 82.4 µM (inactive) | > 88.7 µM (inactive) | > 78.5 µM (inactive) | 50.7 µM (inactive) | > 96.2 µM (inactive) | 36.9 µM (inactive) | 51.4 µM (inactive) | > 81.5 µM (inactive) | > 70.1 µM (inactive) | > 100 | 45.7 µM (inactive) | 64.7 µM (inactive)
CO/N=C(\C(=O)Nc1cncs1)c1csc(NC(c2ccccc2)(c2ccccc2)c2ccccc2)n1 | 6.52 µM (inactive) | 4.52 µM (inactive) | 9.95 µM (inactive) | > 10 µM (inactive) | > 10 µM (inactive) | 3.31 µM (inactive) | 4.38 µM (inactive) | > 10 µM (inactive) | > 10 µM (inactive) | 6.85 µM (inactive) | > 10 µM (inactive) | 7.21 µM (inactive) | > 10 µM (inactive) | > 10 µM (inactive) | > 10 µM (inactive) | 3.81 µM (inactive) | > 10 µM (inactive) | > 10 | > 10 µM (inactive) | > 10 µM (inactive)
Nc1cc([N+](=O)[O-])ccc1C(=O)N1CCC[C@H]1CO | 90.4 µM (inactive) | > 100 µM (inactive) | > 100 µM (inactive) | > 100 µM (inactive) | > 100 µM (inactive) | > 100 µM (inactive) | > 100 µM (inactive) | > 100 µM (inactive) | > 100 µM (inactive) | > 100 µM (inactive) |  | > 100 µM (inactive) | > 100 µM (inactive) | > 100 µM (inactive) | > 100 µM (inactive) | > 100 µM (inactive) | > 100 µM (inactive) | > 100 | > 100 µM (inactive) | > 100 µM (inactive)
COC(=O)n1c(=O)nc2c3c(ncn21)Oc1c(c(-c2ccccc2)nn1-c1ccccc1)C3c1ccc(Cl)cc1 (stereo not drawn) | 1.71 µM (inactive) | 2.1 µM (inactive) | 2 µM (inactive) | 1.63 µM (inactive) | 1.73 µM (inactive) |  | 1.59 µM (inactive) | 1.89 µM (inactive) | 1.66 µM (inactive) | 1.51 µM (inactive) | 1.77 µM (inactive) | 1.48 µM (inactive) |  | 3.29 µM (inactive) | 1.71 µM (inactive) | 1.5 µM (inactive) | 1.46 µM (inactive) | 1.6 | 2.03 µM (inactive) | 1.82 µM (inactive)
S=c1c2cn[nH]c2nc2scc(-c3ccc(Cl)cc3)n12 | > 10 µM (inactive) | 23.6 µM (inactive) | 13.9 µM (inactive) | 16 µM (inactive) | 16.6 µM (inactive) | 15.6 µM (inactive) | 12.9 µM (inactive) | 54.6 µM (inactive) | 4.36 µM (inactive) |  | 17.6 µM (inactive) | 11.3 µM (inactive) | > 10 µM (inactive) | 18.1 µM (inactive) | 12.9 µM (inactive) | 16.2 µM (inactive) | 13.8 µM (inactive) | 10.7 | 13.8 µM (inactive) | 12.9 µM (inactive)
COC(=O)C(CNC(=O)/C=C/c1ccc(OC)c(OC)c1)NC(=O)/C=C/c1ccc(OC)c(OC)c1 (stereo not drawn) | 75.7 µM (inactive) | > 100 µM (inactive) | 90.6 µM (inactive) | > 100 µM (inactive) | > 100 µM (inactive) | 77.1 µM (inactive) | > 100 µM (inactive) | > 100 µM (inactive) | > 100 µM (inactive) |  | > 100 µM (inactive) | > 100 µM (inactive) | > 100 µM (inactive) | > 100 µM (inactive) | > 100 µM (inactive) | > 100 µM (inactive) | > 100 µM (inactive) | > 100 | > 100 µM (inactive) | > 100 µM (inactive)
CN(Cc1cnc2nc(N)nc(N)c2n1)c1ccc(C(=O)NC(CCC(=O)NC(P(=O)(O)O)P(=O)(O)O)C(=O)O)cc1 (stereo not drawn) | 26.3 µM (inactive) | 52.4 µM (inactive) | > 100 µM (inactive) | 4.33 µM (inactive) | 55.2 µM (inactive) | 52.8 µM (inactive) | 5.62 µM (inactive) | 99.1 µM (inactive) | 16.2 µM (inactive) | 7.18 µM (inactive) | 45.5 µM (inactive) | 8.32 µM (inactive) | 36.7 µM (inactive) |  | 6.43 µM (inactive) | 41.1 µM (inactive) | 40.8 µM (inactive) | 22.9 | 50.8 µM (inactive) | 49.7 µM (inactive)
O=C(/C=C/c1ccc(O)c(O)c1)OCC(OC(=O)/C=C/c1ccc(O)c(O)c1)C(=O)O (stereo not drawn) | > 100 µM (inactive) | > 100 µM (inactive) | 63 µM (inactive) | > 100 µM (inactive) | > 100 µM (inactive) | 63.4 µM (inactive) | > 100 µM (inactive) | > 100 µM (inactive) | > 100 µM (inactive) |  | > 100 µM (inactive) | 92.5 µM (inactive) | 80.9 µM (inactive) | > 100 µM (inactive) | 63.7 µM (inactive) | 48 µM (inactive) | > 100 µM (inactive) | 47.6 | > 100 µM (inactive) | > 100 µM (inactive)
